The values that follow come from patent US20110201818A1, “POLO-LIKE KINASE INHIBITORS” (TAKEDA PHARMACEUTICAL COMPANY LIMITED, priority 2007, published 2011).

Some results are limits rather than exact numbers.

For this assay, the target named is T1, human PLK1 (Homo sapiens, UniProt P53350).
T1 construct: FLAG (DYKDDDDK) (N); made in house; host or cells: Sf21 insect cells, recombinant baculovirus (pFASTBAC1, Bac-to-Bac)
T1 sequence (P53350 with tags, fused parts or gaps): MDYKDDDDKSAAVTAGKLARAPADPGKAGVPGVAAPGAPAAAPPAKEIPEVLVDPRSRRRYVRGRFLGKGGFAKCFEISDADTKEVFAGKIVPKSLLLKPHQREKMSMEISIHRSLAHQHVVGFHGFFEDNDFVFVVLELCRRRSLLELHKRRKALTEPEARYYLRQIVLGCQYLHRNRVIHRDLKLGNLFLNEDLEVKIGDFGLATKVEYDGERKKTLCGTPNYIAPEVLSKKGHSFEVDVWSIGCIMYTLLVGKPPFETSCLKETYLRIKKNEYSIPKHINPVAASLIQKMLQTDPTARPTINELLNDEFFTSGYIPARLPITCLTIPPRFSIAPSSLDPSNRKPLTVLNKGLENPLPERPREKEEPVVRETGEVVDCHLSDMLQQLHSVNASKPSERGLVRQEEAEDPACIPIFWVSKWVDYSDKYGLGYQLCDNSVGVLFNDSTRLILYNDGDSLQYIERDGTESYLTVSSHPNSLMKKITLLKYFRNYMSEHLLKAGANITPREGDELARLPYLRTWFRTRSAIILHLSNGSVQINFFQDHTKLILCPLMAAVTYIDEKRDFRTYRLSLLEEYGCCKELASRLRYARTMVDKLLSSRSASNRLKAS
As to the kind of experiment: PLK1 in vitro enzymatic activity assay (phosphorylation of alpha casein by recombinant PLK1). Particulars: recombinant FLAG-tagged PLK1, alpha casein substrate, 500 nmol/L ATP, 40 min at room temperature; read-out: pIC50 (PLK1) (converted). Type of assay: biochemical. On the procedure:
PCR was performed using the vector as a template. […] After XbaI and XhoI digestion of the PCR product, the fragment was subcloned into pFASTBAC1 (Invitrogen, USA). Recombinant baculoviruses were prepared according to the procedure of the Bac-to-Bac baculovirus expression system (Invitrogen, USA). Sf21 cells were purchased from Invitrogen and grown in Sf-900 II SFM medium containing 10% fetal bovine serum, 50 μg/mL gentamicin and 0.1% pluronic F-68 (Invitrogen, USA) at 28° C. For preparation of PLK1 enzyme, Sf21 cells were infected with recombinant baculoviruses and cultured at 28° C. for 72 h.
The inhibition of PLK1 by the compounds was determined with the following assay that measures the phosphorylation of alpha casein by recombinant PLK1. Kinase reactions were performed at room temperature for 40 min in the kinase reaction buffer (25 mmol/L HEPES, pH 7.5, 10 mmol/L magnesium acetate, 1 mmol/L dithiothreitol) containing 50 ng PLK1 enzyme, 0.1 μCi [γ-^32P]ATP, 500 nmol/L ATP and 3 μg alpha casein (MP Biomedicals Inc., USA) in a final volume of 50 μL. The incubation was terminated by the addition of 10% trichloroacetic acid (Wako, Japan). Phosphorylated proteins were filtrated in GF/C filter plates (Packard, USA) with a Cell harvester (Packard, USA) and washed out free [γ-^32P]-ATP with 250 mmol/L phosphoric acid. Then, the plates were air dried for 60 min at 45° C., followed by the addition of 20 μL of MicroScint-O (Packard, USA). The radioactivity was counted by a Top-count scintillation counter (Packard, USA).
`COc1cc(C(=O)N[C@@H]2CCCC[C@@H]2O)ccc1Nc1ncc2c(n1)N(C1CCCCC1)CC(F)(F)C(=O)N2C` (racemic) [Compound 47, 4-(9-cyclohexyl-7,7-difluoro-5-methyl-6-oxo-6,7,8,9-tetrahydro-5H-pyrimido[4,5-b][1,4]diazepin-2-ylamino)-N-((cis)-2-hydroxycyclohexyl)-3-methoxybenzamide]: the IC50 is ≤ 2 nM. Then `COc1cc(C(=O)N[C@@H]2CCCC[C@H]2O)ccc1Nc1ncc2c(n1)N(C1CCCCC1)CC(F)(F)C(=O)N2C` (racemic) [Compound 48, 4-(9-cyclohexyl-7,7-difluoro-5-methyl-6-oxo-6,7,8,9-tetrahydro-5H-pyrimido[4,5-b][1,4]diazepin-2-ylamino)-N-((trans)-2-hydroxycyclohexyl)-3-methoxybenzamide], with ≤ 2 nM; and `COc1cc(C(=O)NC2CC2)ccc1Nc1ncc2c(n1)N(C1CCCC1)CC(F)(F)C(=O)N2C` [Compound 2, 4-(9-cyclopentyl-7,7-difluoro-5-methyl-6-oxo-6,7,8,9-tetrahydro-5H-pyrimido[4,5-b][1,4]diazepin-2-ylamino)-N-cyclopropyl-3-methoxybenzamide], with > 2 nM.

Turning to `COc1cc(C(=O)NC2CCN(CCO)CC2)ccc1Nc1ncc2c(n1)N(C1CCCC1)CC(F)(F)C(=O)N2C` [Compound 5, 4-(9-cyclopentyl-7,7-difluoro-5-methyl-6-oxo-6,7,8,9-tetrahydro-5H-pyrimido[4,5-b][1,4]diazepin-2-ylamino)-N-(1-(2-hydroxyethyl)piperidin-4-yl)-3-methoxybenzamide], the IC50 was ≤ 2 nM. Consider `CCN1CCC(NC(=O)c2ccc(Nc3ncc4c(n3)N(C3CCCC3)CC(F)(F)C(=O)N4C)c(OC)c2)CC1` [Compound 7, 4-(9-cyclopentyl-7,7-difluoro-5-methyl-6-oxo-6,7,8,9-tetrahydro-5H-pyrimido[4,5-b][1,4]diazepin-2-ylamino)-N-(1-ethylpiperidin-4-yl)-3-methoxybenzamide], for which the IC50 was > 2 nM. Then `COc1cc(C(=O)N[C@@H]2CCCNC2)ccc1Nc1ncc2c(n1)N(C1CCCC1)CC(F)(F)C(=O)N2C` [Compound 8, (R)-4-(9-cyclopentyl-7,7-difluoro-5-methyl-6-oxo-6,7,8,9-tetrahydro-5H-pyrimido[4,5-b][1,4]diazepin-2-ylamino)-3-methoxy-N-(piperidin-3-yl)benzamide], with ≤ 2 nM. The value for `COc1cc(C(=O)N[C@H]2CCCNC2)ccc1Nc1ncc2c(n1)N(C1CCCC1)CC(F)(F)C(=O)N2C` [Compound 9, (S)-4-(9-cyclopentyl-7,7-difluoro-5-methyl-6-oxo-6,7,8,9-tetrahydro-5H-pyrimido[4,5-b][1,4]diazepin-2-ylamino)-3-methoxy-N-(piperidin-3-yl)benzamide] was ≤ 2 nM.

Consider `COc1cc(C(=O)NC2CCNCC2)ccc1Nc1ncc2c(n1)N(C1CCCC1)CC(F)(F)C(=O)N2C` [Compound 10, 4-(9-cyclopentyl-7,7-difluoro-5-methyl-6-oxo-6,7,8,9-tetrahydro-5H-pyrimido[4,5-b][1,4]diazepin-2-ylamino)-3-methoxy-N-(piperidin-4-yl)benzamide], for which the IC50 is ≤ 2 nM.

With `COc1cc(C(=O)NC2CCN(C(=O)CN(C)C)CC2)ccc1Nc1ncc2c(n1)N(C1CCCC1)CC(F)(F)C(=O)N2C` [Compound 11, 4-(9-cyclopentyl-7,7-difluoro-5-methyl-6-oxo-6,7,8,9-tetrahydro-5H-pyrimido[4,5-b][1,4]diazepin-2-ylamino)-N-(1-(2-(dimethylamino)acetyl)piperidin-4-yl)-3-methoxybenzamide], the IC50 was ≤ 2 nM. The value for `COc1cc(C(=O)NC2CCN(C(=O)CN3CCCC3)CC2)ccc1Nc1ncc2c(n1)N(C1CCCC1)CC(F)(F)C(=O)N2C` [Compound 12, 4-(9-cyclopentyl-7,7-difluoro-5-methyl-6-oxo-6,7,8,9-tetrahydro-5H-pyrimido[4,5-b][1,4]diazepin-2-ylamino)-3-methoxy-N-(1-(2-(pyrrolidin-1-yl)acetyl)piperidin-4-yl)benzamide] was > 2 nM; that for `COc1cc(C(=O)NC2CCCNCC2)ccc1Nc1ncc2c(n1)N(C1CCCC1)CC(F)(F)C(=O)N2C` (centres unmarked) [Compound 14, N-(Azepan-4-yl)-4-(9-cyclopentyl-7,7-difluoro-5-methyl-6-oxo-6,7,8,9-tetrahydro-5H-pyrimido[4,5-b][1,4]diazepin-2-ylamino)-3-methoxybenzamide] was ≤ 2 nM. Then `COc1cc(C(=O)NC2CCCN(C)CC2)ccc1Nc1ncc2c(n1)N(C1CCCC1)CC(F)(F)C(=O)N2C` (centres unmarked) [Compound 15, 4-(9-cyclopentyl-7,7-difluoro-5-methyl-6-oxo-6,7,8,9-tetrahydro-5H-pyrimido[4,5-b][1,4]diazepin-2-ylamino)-3-methoxy-N-(1-methylazepan-4-yl)benzamide], with ≤ 2 nM.

As to `CN(C)CCOc1ccc(Nc2ncc3c(n2)N(C2CCCC2)CC(F)(F)C(=O)N3C)cc1` [Compound 17, 9-cyclopentyl-2-(4-(2-(dimethylamino)ethoxy)phenylamino)-7,7-difluoro-5-methyl-8,9-dihydro-5H-pyrimido[4,5-b][1,4]diazepin-6(7H)-one], the IC50 is > 2 nM. With `CN1C(=O)C(F)(F)CN(C2CCCC2)c2nc(Nc3ccc4c(c3)NC(=O)CO4)ncc21` [Compound 18, 6-(9-cyclopentyl-7,7-difluoro-5-methyl-6-oxo-6,7,8,9-tetrahydro-5H-pyrimido[4,5-b][1,4]diazepin-2-ylamino)-2H-benzo[b][1,4]oxazin-3(4H)-one], the IC50 is > 2 nM. Regarding `CN1C(=O)C(F)(F)CN(C2CCCC2)c2nc(Nc3ccc4c(c3)NC(=O)C4)ncc21` [Compound 19, 9-cyclopentyl-7,7-difluoro-5-methyl-2-(2-oxoindolin-6-ylamino)-8,9-dihydro-5H-pyrimido[4,5-b][1,4]diazepin-6(7H)-one], the IC50 is > 2 nM. Turning to `CN1C(=O)C(F)(F)CN(C2CCCC2)c2nc(Nc3ccc4[nH]ccc4c3)ncc21` [Compound 20, 2-(1H-Indol-5-ylamino)-9-cyclopentyl-7,7-difluoro-5-methyl-8,9-dihydro-5H-pyrimido[4,5-b][1,4]diazepin-6(7H)-one], the IC50 was > 2 nM.

For the molecule `CN1C(=O)C(F)(F)CN(C2CCCC2)c2nc(Nc3ccc4[nH]cc(C5=CCNCC5)c4c3)ncc21` [Compound 21, 9-Cyclopentyl-7,7-difluoro-5-methyl-2-(3-(1,2,3,6-tetrahydropyridin-4-yl)-1H-indol-5-ylamino)-8,9-dihydro-5H-pyrimido[4,5-b][1,4]diazepin-6(7H)-one], the IC50 is > 2 nM. Then `CN1CCC(NC(=O)c2ccc(Nc3ncc4c(n3)N(C3CCCC3)CC(F)(F)C(=O)N4C)c(F)c2)CC1` [Compound 22, 4-(9-Cyclopentyl-7,7-difluoro-5-methyl-6-oxo-6,7,8,9-tetrahydro-5H-pyrimido[4,5-b][1,4]diazepin-2-ylamino)-3-fluoro-N-(1-methylpiperidin-4-yl)benzamide], with ≤ 2 nM. Then `CN1CCC(NC(=O)c2ccc(Nc3ncc4c(n3)N(C3CCCC3)CC(F)(F)C(=O)N4C)c(Cl)c2)CC1` [Compound 24, 3-Chloro-4-(9-cyclopentyl-7,7-difluoro-5-methyl-6-oxo-6,7,8,9-tetrahydro-5H-pyrimido[4,5-b][1,4]diazepin-2-ylamino)-N-(1-methylpiperidin-4-yl)benzamide], with > 2 nM.

With `CN1CCC(NC(=O)c2ccc(Nc3ncc4c(n3)N(C3CCCC3)CC(F)(F)C(=O)N4C)c(OC(F)(F)F)c2)CC1` [Compound 25, 4-(9-Cyclopentyl-7,7-difluoro-5-methyl-6-oxo-6,7,8,9-tetrahydro-5H-pyrimido[4,5-b][1,4]diazepin-2-ylamino)-N-(1-methylpiperidin-4-yl)-3-(trifluoromethoxy)-benzamide], the IC50 is > 2 nM. The value for `Cc1cc(C(=O)NC2CCN(C)CC2)ccc1Nc1ncc2c(n1)N(C1CCCC1)CC(F)(F)C(=O)N2C` [Compound 26, 4-(9-Cyclopentyl-7,7-difluoro-5-methyl-6-oxo-6,7,8,9-tetrahydro-5H-pyrimido[4,5-b][1,4]diazepin-2-ylamino)-3-methyl-N-(1-methylpiperidin-4-yl)benzamide] was > 2 nM; that for `CCc1cc(C(=O)NC2CCN(C)CC2)ccc1Nc1ncc2c(n1)N(C1CCCC1)CC(F)(F)C(=O)N2C` [Compound 27, 4-(9-Cyclopentyl-7,7-difluoro-5-methyl-6-oxo-6,7,8,9-tetrahydro-5H-pyrimido[4,5-b][1,4]diazepin-2-ylamino)-3-ethyl-N-(1-methylpiperidin-4-yl)benzamide] was ≤ 2 nM; that for `CCOc1cc(C(=O)NC2CCN(C)CC2)ccc1Nc1ncc2c(n1)N(C1CCCC1)CC(F)(F)C(=O)N2C` [Compound 29, 4-(9-Cyclopentyl-7,7-difluoro-5-methyl-6-oxo-6,7,8,9-tetrahydro-5H-pyrimido[4,5-b][1,4]diazepin-2-ylamino)-3-ethoxy-N-(1-methylpiperidin-4-yl)benzamide] was > 2 nM.
